Key:
[1] = biological target: T1, Muscarinic acetylcholine receptor M2 (Homo sapiens, UniProt P08172); assay type: functional, cell-based
T1 sequence (P08172 whole entry): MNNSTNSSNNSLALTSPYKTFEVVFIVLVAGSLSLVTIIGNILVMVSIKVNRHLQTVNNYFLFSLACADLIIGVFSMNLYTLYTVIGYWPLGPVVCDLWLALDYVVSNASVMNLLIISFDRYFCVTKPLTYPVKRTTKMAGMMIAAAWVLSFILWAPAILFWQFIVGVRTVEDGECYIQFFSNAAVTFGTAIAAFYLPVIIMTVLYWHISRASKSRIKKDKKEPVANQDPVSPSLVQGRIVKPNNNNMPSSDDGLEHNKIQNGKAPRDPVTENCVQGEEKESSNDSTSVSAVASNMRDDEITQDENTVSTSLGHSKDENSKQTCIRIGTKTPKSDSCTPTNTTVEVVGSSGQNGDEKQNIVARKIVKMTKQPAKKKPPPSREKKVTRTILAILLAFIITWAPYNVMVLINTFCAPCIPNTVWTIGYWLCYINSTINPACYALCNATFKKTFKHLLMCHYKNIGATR

Cannabinoid receptor 1 = Cannabinoid receptor 1 (Homo sapiens, UniProt P21554); assay type: functional, cell-based
Sequence of Cannabinoid receptor 1 (P21554 whole entry): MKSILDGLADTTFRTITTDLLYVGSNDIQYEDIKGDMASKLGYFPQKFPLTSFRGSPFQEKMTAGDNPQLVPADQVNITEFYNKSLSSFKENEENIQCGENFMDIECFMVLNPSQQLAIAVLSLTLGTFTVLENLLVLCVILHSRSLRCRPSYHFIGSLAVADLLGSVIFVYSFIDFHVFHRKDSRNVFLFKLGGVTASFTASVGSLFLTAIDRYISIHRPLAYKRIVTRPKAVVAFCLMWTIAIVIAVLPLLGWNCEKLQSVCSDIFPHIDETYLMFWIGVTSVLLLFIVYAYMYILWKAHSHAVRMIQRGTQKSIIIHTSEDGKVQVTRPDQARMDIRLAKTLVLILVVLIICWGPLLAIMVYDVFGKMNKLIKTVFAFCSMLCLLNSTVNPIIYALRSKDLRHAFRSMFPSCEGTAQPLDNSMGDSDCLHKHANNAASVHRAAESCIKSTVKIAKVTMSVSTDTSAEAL

Mu-type opioid receptor = Mu-type opioid receptor (Homo sapiens, UniProt P35372)
Sequence of Mu-type opioid receptor (P35372 whole entry): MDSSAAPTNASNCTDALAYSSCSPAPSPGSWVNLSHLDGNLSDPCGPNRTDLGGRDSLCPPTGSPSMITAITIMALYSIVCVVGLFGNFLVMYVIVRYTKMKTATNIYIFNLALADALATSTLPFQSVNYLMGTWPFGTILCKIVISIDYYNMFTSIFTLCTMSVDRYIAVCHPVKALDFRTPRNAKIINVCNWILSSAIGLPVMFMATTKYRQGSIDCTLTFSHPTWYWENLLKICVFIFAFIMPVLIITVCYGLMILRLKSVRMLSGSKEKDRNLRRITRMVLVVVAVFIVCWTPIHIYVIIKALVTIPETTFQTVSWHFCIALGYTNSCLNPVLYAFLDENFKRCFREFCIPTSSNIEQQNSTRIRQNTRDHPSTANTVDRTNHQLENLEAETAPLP

Progesterone receptor = biological target: T2, Progesterone receptor (Homo sapiens, UniProt P06401); assay type: functional
T2 sequence (P06401 whole entry): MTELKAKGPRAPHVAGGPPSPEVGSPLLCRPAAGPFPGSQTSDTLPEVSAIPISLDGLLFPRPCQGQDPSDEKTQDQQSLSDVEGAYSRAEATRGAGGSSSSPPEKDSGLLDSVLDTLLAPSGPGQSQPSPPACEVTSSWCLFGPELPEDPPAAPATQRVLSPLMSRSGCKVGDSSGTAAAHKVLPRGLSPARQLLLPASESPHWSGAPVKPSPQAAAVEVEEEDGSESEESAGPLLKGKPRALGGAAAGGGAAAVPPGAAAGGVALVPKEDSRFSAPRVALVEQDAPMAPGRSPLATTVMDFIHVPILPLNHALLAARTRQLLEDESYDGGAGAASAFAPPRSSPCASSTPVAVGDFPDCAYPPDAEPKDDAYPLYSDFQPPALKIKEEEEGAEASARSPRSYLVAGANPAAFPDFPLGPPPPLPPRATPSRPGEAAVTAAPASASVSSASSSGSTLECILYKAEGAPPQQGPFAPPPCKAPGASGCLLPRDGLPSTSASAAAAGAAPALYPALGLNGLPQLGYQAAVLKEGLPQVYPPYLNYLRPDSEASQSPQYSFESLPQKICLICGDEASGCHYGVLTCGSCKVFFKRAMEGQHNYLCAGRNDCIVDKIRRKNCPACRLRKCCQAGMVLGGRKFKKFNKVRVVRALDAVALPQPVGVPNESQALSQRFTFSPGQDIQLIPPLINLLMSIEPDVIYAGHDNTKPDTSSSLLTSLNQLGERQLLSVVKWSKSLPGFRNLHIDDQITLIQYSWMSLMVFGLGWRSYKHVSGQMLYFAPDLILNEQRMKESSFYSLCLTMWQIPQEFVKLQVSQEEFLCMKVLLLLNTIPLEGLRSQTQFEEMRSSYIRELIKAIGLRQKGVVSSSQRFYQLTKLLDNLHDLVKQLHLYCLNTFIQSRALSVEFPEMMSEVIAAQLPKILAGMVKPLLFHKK

[2] = biological target: T3, Type-1 angiotensin II receptor (Homo sapiens, UniProt P30556)
T3 sequence (P30556 whole entry): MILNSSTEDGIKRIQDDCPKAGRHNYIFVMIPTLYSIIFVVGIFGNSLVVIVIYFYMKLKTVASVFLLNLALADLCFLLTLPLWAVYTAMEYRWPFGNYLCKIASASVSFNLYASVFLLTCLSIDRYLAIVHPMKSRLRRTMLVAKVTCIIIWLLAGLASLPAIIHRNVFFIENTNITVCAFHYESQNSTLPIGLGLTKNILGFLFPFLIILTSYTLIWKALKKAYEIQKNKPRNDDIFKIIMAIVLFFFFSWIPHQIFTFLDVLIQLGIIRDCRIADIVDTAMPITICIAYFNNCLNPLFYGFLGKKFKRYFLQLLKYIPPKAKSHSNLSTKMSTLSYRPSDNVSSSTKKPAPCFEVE

[3] = biological target: T4, Prostaglandin G/H synthase 1 (Rattus norvegicus, UniProt Q63921); assay type: functional
T4 sequence (Q63921 whole entry): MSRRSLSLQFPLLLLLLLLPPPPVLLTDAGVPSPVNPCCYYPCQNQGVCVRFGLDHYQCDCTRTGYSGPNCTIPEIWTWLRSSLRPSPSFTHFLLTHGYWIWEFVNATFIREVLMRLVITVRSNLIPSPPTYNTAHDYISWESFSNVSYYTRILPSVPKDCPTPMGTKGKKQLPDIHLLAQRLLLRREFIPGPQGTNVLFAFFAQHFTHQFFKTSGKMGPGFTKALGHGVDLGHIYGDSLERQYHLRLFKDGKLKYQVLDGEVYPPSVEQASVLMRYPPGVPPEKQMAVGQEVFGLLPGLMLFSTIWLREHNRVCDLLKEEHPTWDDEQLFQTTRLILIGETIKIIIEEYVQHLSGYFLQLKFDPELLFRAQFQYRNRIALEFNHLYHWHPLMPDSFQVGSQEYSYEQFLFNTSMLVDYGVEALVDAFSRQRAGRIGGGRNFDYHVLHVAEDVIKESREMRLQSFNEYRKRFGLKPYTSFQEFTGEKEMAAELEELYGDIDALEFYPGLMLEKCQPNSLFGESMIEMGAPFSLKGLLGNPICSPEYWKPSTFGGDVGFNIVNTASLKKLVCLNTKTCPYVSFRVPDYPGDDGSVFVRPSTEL
Further: assay procedure not described here.

Compound | AC50 [1] | AC50 (Cannabinoid receptor 1) | AC50 (Mu-type opioid receptor) | AC50 (Progesterone receptor) | AC50 [2] | AC50 [3]
CC(C)Cc1ccc([C@H](C)C(=O)O)cc1 [DEXIBUPROFEN] | > 30 µM | > 30 µM | > 30 µM | > 30 µM | > 30 µM | –
O=C(O)Cc1ccccc1Nc1c(Cl)cccc1Cl [DICLOFENAC] | > 10 µM | > 30 µM | > 30 µM | – | > 30 µM | –
CNC[C@H](O)c1ccc(O)c(O)c1 [EPINEPHRINE] | > 30 µM | > 30 µM | – | > 30 µM | > 30 µM | > 30 µM
Cc1ccc(C)c(OCCCC(C)(C)C(=O)O)c1 [GEMFIBROZIL] | > 10 µM | > 30 µM | > 30 µM | – | > 30 µM | > 30 µM
CCCCCCCN(CC)CCCC(O)c1ccc(NS(C)(=O)=O)cc1 (stereo unspecified) [IBUTILIDE] | > 30 µM | – | – | > 30 µM | > 30 µM | > 30 µM
CC[C@H](C)C(=O)O[C@H]1C[C@@H](C)C=C2C=C[C@H](C)[C@H](CC[C@@H]3C[C@@H](O)CC(=O)O3)[C@H]21 [LOVASTATIN] | > 10 µM | > 30 µM | > 30 µM | – | 39.8 µM | > 30 µM
CC[C@@H](CO)NC(=O)[C@@H]1C=C2c3cccc4c3c(cn4C)C[C@H]2N(C)C1 [METHYSERGIDE] | > 30 µM | > 30 µM | > 30 µM | – | > 30 µM | > 30 µM
CNC(=C[N+](=O)[O-])NCCSCc1csc(CN(C)C)n1 [NIZATIDINE] | > 10 µM | – | > 30 µM | > 10 µM | > 10 µM | > 10 µM
CC(CN1c2ccccc2Sc2ccccc21)N(C)C (stereo unspecified) [PROMETHAZINE] | > 30 µM | > 30 µM | – | – | > 30 µM | > 30 µM
CCCc1cc(=O)[nH]c(=S)[nH]1 [PROPYLTHIOURACIL] | > 10 µM | – | > 30 µM | > 10 µM | > 10 µM | 6.6 µM
Cn1cc(C(=O)[C@@H]2CCc3nc[nH]c3C2)c2ccccc21 [RAMOSETRON] | > 30 µM | > 30 µM | – | > 30 µM | > 30 µM | > 30 µM
S=P(N1CC1)(N1CC1)N1CC1 [THIOTEPA] | – | > 30 µM | 28 µM | > 30 µM | > 30 µM | > 30 µM
CC(C)C[C@H](NC(=O)[C@@H](O)[C@H](N)Cc1ccccc1)C(=O)O [UBENIMEX] | > 30 µM | > 30 µM | – | > 30 µM | – | > 30 µM
CC(C)[C@H](N)C(=O)OCCOCn1cnc2c(=O)[nH]c(N)nc21 [VALACYCLOVIR] | > 10 µM | > 30 µM | > 30 µM | – | > 30 µM | > 30 µM
COc1cc(C(=O)NS(=O)(=O)c2ccccc2C)ccc1Cc1cn(C)c2ccc(NC(=O)OC3CCCC3)cc12 [ZAFIRLUKAST] | – | 30 µM | > 30 µM | > 30 µM | > 10 µM | 5.1 µM

Reference: ChEMBL document CHEMBL5291721, “A preclinical secondary pharmacology resource illuminates target-adverse drug reaction associations of marketed drugs” (Nat Commun, 2023)
